We go through 15 molecules from US20220242863A1, “COMPOUNDS FOR TREATMENT OF EYE DISORDERS” (SINOPSEE THERAPEUTICS, priority 2019, published 2022).

Experiment [1] concerns BA/F3 cells expressing PDGFR. The experiment is described as follows: Cell viability by MTS assay (MTS Assay 1). The class given is cell-based. As to conditions: for Activity in MTS cell viability assay compared to imatinib and quizartinib controls: Ba/F3 cells expressing PDGFR, FIG. 2. The protocol:
(§1) The effect of the compounds on cell viability were determined using MTS assay. MTS Cell Proliferation Assay Kit is a colorimetric method for sensitive quantification of viable cells in proliferation and cytotoxicity assay. The method is based on the reduction of MTS tetrazolium compound by viable cells to generate a colored formazan product that is soluble in cell culture media. BA/F3 cells expressing the receptor tyrosine kinase (either PDGFR [MTS Assay 1] or FIt3 [MTS Assay 2]) were cultured in standard culture conditions in a 96-well microtiter plate (final volume of 200 μl/well) in the absence or presence of the compound to be tested and were incubated for 20-48 hrs. MTS Reagent (20 μl/well) was added into each well & incubated for 0.5-4 hours at 37° C. in standard culture conditions. Absorbance at 490 nm was recorded using a plate reader.
(§2) Results are shown in FIGS. 2 and 3 and Table 2 (where IC50 indicates the concentration of compound required to reduce cell viability to 50%).
For the MTS Assay, the result indicates the concentration of compound required to reduce cell viability to 50%.
(In general: Formazan colour is commonly taken as a measure of viable cells.)

Experiment [2] concerns BA/F3 cells expressing FIt3. The experiment is described as follows: Cell viability by MTS assay (MTS Assay 2). The experiment is classed as cell-based. As to conditions: Mus musculus, BaF3, concentration required to reduce cell viability to 50%, 20-48 hrs. The method, then:
as §1, §2
In Table 3: • L represents an IC50 of less than 500 nM • M represents an IC50 of between 500 nM and 5000 nM • H represents an IC50 of more than 5000 nM • For the MTS Assay, the result indicates the concentration of compound required to reduce cell viability to 50%.

The target in another experiment is CDK19 (Homo sapiens, UniProt Q9BWU1). Description: In vitro kinase assay ([γ-33P]-ATP). The experiment is classed as biochemical. The settings on record: ATP at apparent Km of the kinase. The method, then:
(§3) To determine the inhibitory activity of compounds, in vitro kinase assays were performed on respective enzymes purified from Sf9 insect cells or E. coli as recombinant GST-fusion proteins or His-tagged proteins.

A further experiment has as its target CDK8 (Homo sapiens, UniProt P49336). The experiment is described as follows: In vitro kinase assay ([γ-33P]-ATP). The experiment is classed as biochemical. As to conditions: ATP at apparent Km of the kinase. The method, then: as §3
For a further experiment, the target named is T1, Flt3 (Homo sapiens, UniProt P36888).
T1 sequence (P36888 27-993): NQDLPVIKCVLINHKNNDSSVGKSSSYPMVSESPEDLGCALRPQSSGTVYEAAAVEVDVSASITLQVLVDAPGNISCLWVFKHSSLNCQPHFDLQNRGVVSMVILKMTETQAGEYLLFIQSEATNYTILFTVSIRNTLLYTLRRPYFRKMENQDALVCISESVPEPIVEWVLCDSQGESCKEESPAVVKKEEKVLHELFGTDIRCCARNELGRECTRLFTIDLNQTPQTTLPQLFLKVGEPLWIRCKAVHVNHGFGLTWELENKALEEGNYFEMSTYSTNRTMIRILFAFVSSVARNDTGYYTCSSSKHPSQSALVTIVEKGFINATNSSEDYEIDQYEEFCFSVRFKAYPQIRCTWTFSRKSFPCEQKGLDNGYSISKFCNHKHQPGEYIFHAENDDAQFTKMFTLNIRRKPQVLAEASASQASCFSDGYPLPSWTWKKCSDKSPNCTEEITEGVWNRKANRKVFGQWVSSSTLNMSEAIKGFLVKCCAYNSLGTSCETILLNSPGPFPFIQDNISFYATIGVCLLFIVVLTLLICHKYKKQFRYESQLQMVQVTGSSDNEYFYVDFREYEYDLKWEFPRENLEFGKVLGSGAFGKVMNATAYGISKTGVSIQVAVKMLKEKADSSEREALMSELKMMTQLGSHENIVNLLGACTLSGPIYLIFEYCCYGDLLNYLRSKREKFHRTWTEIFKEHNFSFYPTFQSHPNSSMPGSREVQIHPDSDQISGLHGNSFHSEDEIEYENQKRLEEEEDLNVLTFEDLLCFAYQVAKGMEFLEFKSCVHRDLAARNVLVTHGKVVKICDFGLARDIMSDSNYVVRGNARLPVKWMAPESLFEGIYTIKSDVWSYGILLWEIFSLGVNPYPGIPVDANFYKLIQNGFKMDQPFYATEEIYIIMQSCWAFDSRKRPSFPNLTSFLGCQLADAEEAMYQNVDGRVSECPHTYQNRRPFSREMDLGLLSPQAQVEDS
The experiment is described as follows: In vitro kinase assay ([γ-33P]-ATP). The experiment is classed as biochemical. As to conditions: ATP at apparent Km of the kinase. The method, then:
as §3

Another experiment concerns the target PDGFR-α (Homo sapiens, UniProt P16234). The experiment is described as follows: In vitro kinase assay ([γ-33P]-ATP). The class given is biochemical. The settings on record: ATP at apparent Km of the kinase. The protocol:
as §3

Experiment [3] addresses T2, PDGFRβ (Homo sapiens, UniProt P09619). The experiment is described as follows: In vitro kinase assay ([γ-33P]-ATP). The class given is biochemical. The settings on record: ATP at apparent Km of the kinase. The protocol: as §3
The next experiment addresses VEGFR-2 (Homo sapiens, UniProt P35968). Description: In vitro kinase assay ([γ-33P]-ATP). As to conditions: ATP at apparent Km of the kinase. The experiment is classed as biochemical. The protocol: as §3
The target of experiment [4] is T2, PDGFRβ. Description: Western blot of PDGFRβ autophosphorylation and Shp2 phosphorylation in HEK293 cell line model. The arrangement: expressed in transfected cells; host or cells: HEK293. The class given is cell-based. As to conditions: HEK293 cells expressing PDGFRβ, 20 ng/ml PDGF; FIG. 1. The protocol: Human Embryonic kidney cells (HEK293) were constructed to express human PDGFRWT under the control of constitutive CMV promoter. Cells were grown in the presence of 20 ng/ml PDGF (the ligand for the PDGFRβ) to activate the PDGFRβ. Different concentrations of the compounds of Examples 1 and 2 were added to study their effect on the PDGFRβ-mediated signaling. Autophosphorylation of PDGFRβ and Shp2 phosphorylation were monitored by Western blotting and were used as the markers for PDGFRβ signaling. β-Actin was used as an internal control.
Background: Immunoblotting shows a protein as a band on a membrane.

[5] abbreviates: Mus musculus, BaF3, concentration required to reduce cell viability to 50%, BA/F3 cells expressing PDGFR, 20-48 hrs, read-out: IC50 (nM) MTS Assay 1.

Where two headings read alike, the source gives them in different places.

T2 sequence (P09619 33-1106): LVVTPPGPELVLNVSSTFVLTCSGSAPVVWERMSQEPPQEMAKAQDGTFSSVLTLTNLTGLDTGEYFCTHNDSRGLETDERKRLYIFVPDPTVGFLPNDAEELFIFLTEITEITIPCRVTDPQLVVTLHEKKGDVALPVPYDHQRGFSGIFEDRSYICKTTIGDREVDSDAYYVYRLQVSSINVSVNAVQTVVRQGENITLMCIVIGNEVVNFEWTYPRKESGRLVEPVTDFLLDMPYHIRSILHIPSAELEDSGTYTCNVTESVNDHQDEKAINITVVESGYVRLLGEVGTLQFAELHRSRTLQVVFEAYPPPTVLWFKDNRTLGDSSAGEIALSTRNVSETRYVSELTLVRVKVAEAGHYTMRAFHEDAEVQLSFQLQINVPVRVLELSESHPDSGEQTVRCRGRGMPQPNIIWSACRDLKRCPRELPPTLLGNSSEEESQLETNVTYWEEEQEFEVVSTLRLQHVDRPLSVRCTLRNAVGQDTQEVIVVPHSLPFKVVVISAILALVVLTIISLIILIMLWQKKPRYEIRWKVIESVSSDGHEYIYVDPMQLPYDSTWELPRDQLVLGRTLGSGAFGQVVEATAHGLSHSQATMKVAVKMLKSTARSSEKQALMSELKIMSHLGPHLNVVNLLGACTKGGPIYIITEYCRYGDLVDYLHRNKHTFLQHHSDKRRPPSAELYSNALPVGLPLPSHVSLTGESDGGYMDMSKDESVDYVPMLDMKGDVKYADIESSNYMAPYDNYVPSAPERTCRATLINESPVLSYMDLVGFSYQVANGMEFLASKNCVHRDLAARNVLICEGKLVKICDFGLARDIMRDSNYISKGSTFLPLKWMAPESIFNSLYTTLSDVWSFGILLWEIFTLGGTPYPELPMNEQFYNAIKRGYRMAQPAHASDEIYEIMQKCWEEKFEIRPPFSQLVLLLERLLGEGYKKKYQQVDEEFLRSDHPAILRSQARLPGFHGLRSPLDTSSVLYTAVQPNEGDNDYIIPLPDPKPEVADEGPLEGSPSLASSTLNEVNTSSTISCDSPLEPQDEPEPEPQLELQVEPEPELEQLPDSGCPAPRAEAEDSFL
Chain of PDGFR-α (P16234 24-1089): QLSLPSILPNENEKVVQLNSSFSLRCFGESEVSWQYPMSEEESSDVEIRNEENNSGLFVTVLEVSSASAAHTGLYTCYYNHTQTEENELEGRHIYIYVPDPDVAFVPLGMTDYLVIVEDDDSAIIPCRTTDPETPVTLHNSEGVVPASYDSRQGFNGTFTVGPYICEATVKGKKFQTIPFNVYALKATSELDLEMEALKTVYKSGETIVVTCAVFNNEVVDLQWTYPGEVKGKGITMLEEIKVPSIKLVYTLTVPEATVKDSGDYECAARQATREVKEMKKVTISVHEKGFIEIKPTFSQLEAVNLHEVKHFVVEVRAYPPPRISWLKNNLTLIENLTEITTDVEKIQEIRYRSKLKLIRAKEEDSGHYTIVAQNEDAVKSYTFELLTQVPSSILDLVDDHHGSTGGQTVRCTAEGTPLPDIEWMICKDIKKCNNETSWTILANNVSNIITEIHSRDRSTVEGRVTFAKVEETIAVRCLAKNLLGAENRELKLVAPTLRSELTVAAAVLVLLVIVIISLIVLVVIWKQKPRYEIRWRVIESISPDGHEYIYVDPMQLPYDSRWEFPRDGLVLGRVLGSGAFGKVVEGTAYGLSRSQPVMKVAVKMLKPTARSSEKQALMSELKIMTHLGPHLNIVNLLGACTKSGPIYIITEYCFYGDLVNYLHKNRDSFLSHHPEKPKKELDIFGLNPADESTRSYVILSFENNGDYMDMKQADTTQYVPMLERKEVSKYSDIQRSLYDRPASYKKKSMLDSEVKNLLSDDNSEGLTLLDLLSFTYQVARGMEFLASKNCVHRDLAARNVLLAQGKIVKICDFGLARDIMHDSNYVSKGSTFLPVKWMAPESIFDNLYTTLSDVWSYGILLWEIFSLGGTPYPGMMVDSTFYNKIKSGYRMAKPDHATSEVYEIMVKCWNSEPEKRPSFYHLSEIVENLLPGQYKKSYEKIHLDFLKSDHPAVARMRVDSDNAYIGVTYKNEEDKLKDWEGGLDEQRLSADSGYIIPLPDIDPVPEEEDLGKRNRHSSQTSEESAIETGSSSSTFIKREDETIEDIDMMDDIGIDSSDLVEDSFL
Chain of VEGFR-2 (P35968 20-1356): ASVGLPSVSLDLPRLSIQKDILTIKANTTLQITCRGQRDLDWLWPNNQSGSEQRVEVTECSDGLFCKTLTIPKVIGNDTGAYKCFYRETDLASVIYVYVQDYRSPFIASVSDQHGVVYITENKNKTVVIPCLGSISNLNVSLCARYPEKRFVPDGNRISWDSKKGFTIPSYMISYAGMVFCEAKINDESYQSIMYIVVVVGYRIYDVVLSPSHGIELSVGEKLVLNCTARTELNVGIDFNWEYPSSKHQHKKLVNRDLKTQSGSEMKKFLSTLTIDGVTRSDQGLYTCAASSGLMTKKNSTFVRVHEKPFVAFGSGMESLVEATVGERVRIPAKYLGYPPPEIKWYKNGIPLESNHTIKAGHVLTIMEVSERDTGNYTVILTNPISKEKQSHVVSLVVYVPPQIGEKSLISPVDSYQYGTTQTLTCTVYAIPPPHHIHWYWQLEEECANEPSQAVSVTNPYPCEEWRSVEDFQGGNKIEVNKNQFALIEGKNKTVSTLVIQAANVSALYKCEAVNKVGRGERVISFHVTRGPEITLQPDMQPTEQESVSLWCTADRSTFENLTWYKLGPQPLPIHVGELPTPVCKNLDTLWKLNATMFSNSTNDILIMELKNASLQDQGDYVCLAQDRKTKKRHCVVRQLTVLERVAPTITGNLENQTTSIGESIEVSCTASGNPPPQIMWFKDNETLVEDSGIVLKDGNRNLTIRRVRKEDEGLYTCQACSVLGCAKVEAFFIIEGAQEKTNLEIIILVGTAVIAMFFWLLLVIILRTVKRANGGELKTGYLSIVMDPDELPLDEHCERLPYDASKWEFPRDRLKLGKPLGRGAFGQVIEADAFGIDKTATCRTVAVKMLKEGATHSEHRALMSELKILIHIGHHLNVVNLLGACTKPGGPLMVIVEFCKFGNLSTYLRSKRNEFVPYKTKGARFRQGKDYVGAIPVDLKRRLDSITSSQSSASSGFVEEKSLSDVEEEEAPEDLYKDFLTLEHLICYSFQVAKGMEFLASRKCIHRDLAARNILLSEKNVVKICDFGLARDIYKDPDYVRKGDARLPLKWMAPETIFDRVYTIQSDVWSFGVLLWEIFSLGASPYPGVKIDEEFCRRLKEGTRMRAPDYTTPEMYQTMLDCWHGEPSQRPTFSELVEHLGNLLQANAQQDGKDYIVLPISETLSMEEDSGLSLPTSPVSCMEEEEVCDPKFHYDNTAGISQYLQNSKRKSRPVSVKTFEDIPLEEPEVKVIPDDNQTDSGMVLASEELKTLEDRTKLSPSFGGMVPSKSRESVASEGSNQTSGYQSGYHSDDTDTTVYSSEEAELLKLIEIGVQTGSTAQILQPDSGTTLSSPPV
Chain of CDK8 (P49336 whole entry, species assumed): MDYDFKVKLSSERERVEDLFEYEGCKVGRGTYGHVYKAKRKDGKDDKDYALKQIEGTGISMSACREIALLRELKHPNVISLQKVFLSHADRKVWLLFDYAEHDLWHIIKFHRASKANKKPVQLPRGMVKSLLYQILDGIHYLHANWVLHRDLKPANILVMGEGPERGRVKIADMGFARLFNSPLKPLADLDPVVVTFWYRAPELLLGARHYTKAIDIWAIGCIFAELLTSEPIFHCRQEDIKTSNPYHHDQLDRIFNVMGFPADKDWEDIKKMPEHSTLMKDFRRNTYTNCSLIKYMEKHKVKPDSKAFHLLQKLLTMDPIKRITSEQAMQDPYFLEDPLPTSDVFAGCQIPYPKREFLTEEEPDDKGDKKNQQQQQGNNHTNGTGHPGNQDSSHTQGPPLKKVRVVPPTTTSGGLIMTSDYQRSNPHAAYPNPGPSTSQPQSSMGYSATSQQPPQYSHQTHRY
Chain of CDK8 (P24863 whole entry partner, species assumed): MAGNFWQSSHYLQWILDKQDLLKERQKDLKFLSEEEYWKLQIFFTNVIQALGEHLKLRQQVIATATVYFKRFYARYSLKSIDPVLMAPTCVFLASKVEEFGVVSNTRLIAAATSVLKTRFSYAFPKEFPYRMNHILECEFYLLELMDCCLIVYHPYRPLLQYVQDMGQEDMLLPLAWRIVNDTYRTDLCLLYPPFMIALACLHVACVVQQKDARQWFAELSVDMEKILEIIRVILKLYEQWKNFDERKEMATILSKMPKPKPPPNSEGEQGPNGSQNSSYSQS
Chain of CDK19 (Q9BWU1 whole entry, species assumed, the tested form may be a part): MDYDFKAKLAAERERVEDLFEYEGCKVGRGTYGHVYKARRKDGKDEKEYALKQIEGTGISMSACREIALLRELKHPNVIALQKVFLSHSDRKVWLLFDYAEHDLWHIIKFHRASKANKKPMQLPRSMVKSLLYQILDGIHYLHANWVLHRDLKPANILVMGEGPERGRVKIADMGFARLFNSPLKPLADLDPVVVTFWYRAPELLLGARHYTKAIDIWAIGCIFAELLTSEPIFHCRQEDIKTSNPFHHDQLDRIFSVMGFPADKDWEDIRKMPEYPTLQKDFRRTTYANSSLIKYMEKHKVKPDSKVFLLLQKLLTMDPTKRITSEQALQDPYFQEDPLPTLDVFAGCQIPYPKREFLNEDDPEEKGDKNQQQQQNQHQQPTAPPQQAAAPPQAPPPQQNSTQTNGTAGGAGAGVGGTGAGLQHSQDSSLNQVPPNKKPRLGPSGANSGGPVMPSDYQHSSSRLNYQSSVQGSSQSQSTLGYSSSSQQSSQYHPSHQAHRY
Chain of CDK19 (P24863 whole entry partner, species assumed, the tested form may be a part): as the sequence (P24863 whole entry partner, species assumed) above

With `Cn1nc(NC(=O)COc2ccc(-c3cnc4ccccn34)cn2)cc1C(F)(F)F` [Example 1], the “Activity in MTS cell viability assay compared to imatinib and quizartinib controls” value in experiment [1] is “improved activity when compared to the imatinib and quizartinib controls”. For the same molecule, the IC50 in experiment [1] (Mus musculus, BaF3, read-out: IC50 (nM) MTS Assay 1) is below 500 nM; in [2], below 500 nM; on CDK19, below 500 nM; at CDK8 it was below 500 nM; at Flt3, below 500 nM; on PDGFR-α, below 500 nM. For the same molecule, the IC50 on PDGFRβ [3] and at VEGFR-2 was below 500 nM in each case. Besides, the “Inhibition of PDGFRβ signaling (PDGFRβ autophosphorylation, Shp2 phosphorylation)” value at PDGFRβ [4] is “able to inhibit PDGFRβ signaling”.
On to `Cc1ccc(NC(=O)COc2ccc(-c3cnc4ccccn34)cn2)cc1C(F)(F)F` [Example 2], for which the “Inhibition of PDGFRβ signaling (PDGFRβ autophosphorylation, Shp2 phosphorylation)” value on PDGFRβ [4] is “able to inhibit PDGFRβ signaling”.
For `Cc1cnc(NC(=O)COc2ccc(-c3cnc4cnccn34)cn2)cc1C(F)(F)F` [Example 3], the “Activity in MTS cell viability assay compared to imatinib and quizartinib controls” value in experiment [1] was “improved activity when compared to the imatinib and quizartinib controls”.
In the case of `Cn1nc(NC(=O)COc2ccc(-c3cnc4cnccn34)c(F)n2)cc1C(F)(F)F` [Example 6], the figures for the half-maximal inhibitory concentration (IC50) in experiment [1] (setting [5]) and in experiment [2] were 500 to 5000 nM and below 500 nM, respectively.
In the same order, the values of `Cc1ccc(NC(=O)COc2ccc(-c3cnc4cnccn34)c(F)n2)cc1C(F)(F)F` [Example 7] are below 500 nM and below 500 nM.
Consider `Cn1nc(NC(=O)COc2ccc(-c3cnc4cnccn34)cn2)cc1C(F)(F)F` [Example 9], for which the IC50 was below 500 nM in [1] (concentration required to reduce cell viability to 50%, BA/F3 cells expressing PDGFR, 20-48 hrs, read-out: IC50 (nM) MTS Assay 1); below 500 nM at CDK19; below 500 nM on CDK8.
For the molecule `Cc1ccc(NC(=O)COc2ccc(-c3cnc4ccc(-c5ccc(C(=O)N6CCOCC6)cc5)cn34)cc2)cc1C(F)(F)F` [Example 10], the half-maximal inhibitory concentration (IC50) in [1] (setting [5]) was below 500 nM.
As to `O=C(Nc1cc(C(F)(F)F)c(Cl)cn1)C1(Oc2ccc(-c3cnc4cnccn34)cn2)CC1` [Example 12], the 50% inhibitory concentration (IC50) at CDK19, on CDK8, on Flt3, at PDGFR-α, on PDGFRβ [3] and at VEGFR-2 was above 5000 nM throughout.
With `CC(Oc1ccc(-c2cnc3cnccn23)cn1)C(=O)Nc1cc(C(F)(F)F)c(Cl)cn1` (stereo not drawn) [Example 13], the IC50 at CDK19 was 500 to 5000 nM; at CDK8, 500 to 5000 nM; at Flt3 it was above 5000 nM; on PDGFR-α, 500 to 5000 nM; at PDGFRβ [3], 500 to 5000 nM; on VEGFR-2 it was 500 to 5000 nM.
As to `Cc1ccc(NC(=O)c2ccc(Nc3cnc4cnccn34)cc2)cc1C(F)(F)F` [Example 14], the IC50 at CDK19 was 500 to 5000 nM; on CDK8, 500 to 5000 nM; on Flt3 it was above 5000 nM; on PDGFR-α it was above 5000 nM; on PDGFRβ [3], above 5000 nM; at VEGFR-2, above 5000 nM.
In the case of `Cc1ccc(NC(=O)CNc2ccc(-c3cnc4cnccn34)cc2)cc1C(F)(F)F` [Example 15], the half-maximal inhibitory concentration (IC50) (in experiment [2]; on CDK19; on CDK8; on Flt3; on PDGFR-α; at PDGFRβ [3]) was below 500 nM in each case. Also, the IC50 at VEGFR-2 was below 500 nM.
`O=C(CNc1ccc(-c2cnc3cnccn23)cc1)Nc1cc(C(F)(F)F)c(Cl)cn1` [Example 16]: the IC50 at CDK19, at CDK8, at Flt3, at PDGFR-α, on PDGFRβ [3] and on VEGFR-2 was below 500 nM each time.
In the case of `Cn1nc(NC(=O)CNc2ccc(-c3cnc4cnccn34)cc2)cc1C(F)(F)F` [Example 17], the IC50 at CDK19, on CDK8, at Flt3, at PDGFR-α, on PDGFRβ [3] and on VEGFR-2 was below 500 nM each time.
For `Cn1nc(NC(=O)CNc2ccc(-c3cnc4cnccn34)c(F)c2)cc1C(F)(F)F` [Example 18], the IC50 on CDK19, on CDK8, at Flt3, at PDGFR-α, on PDGFRβ [3] and on VEGFR-2 was below 500 nM each time.
As to `Cn1nc(NC(=O)COc2ccc(-c3cnn4cccnc34)cc2)cc1C(F)(F)F` [Example 19], the IC50 at CDK19, at CDK8, on Flt3, at PDGFR-α, on PDGFRβ [3] and at VEGFR-2 was below 500 nM throughout.

In general, IC50 refers to the concentration that inhibits the measured activity by half.
